Laboratory results taken from patent US20080103209A1, “Compounds And Methods For Treating Non-Inflammatory Pain Using Ppar Alpha Agonists” (The Regents of The University of California, priority 2004, published 2008).

Columns and labels:
mice [1] = assay: TPA-induced ear edema (irritant contact dermatitis); type: in vivo, mouse
Source text: In addition to rapid-onset analgesia, PEA also exerts prolonged anti-inflammatory effects [Benvenuti, et al., Boll Soc It Biol Sper 44, 809-813 (1968); Lambert, et al., Curr Med. Chem. 9, 663-74 (2002)], which are associated with the down-regulation of pro-inflammatory proteins such as nitric oxide synthase (NOS) [Costa, et al., Br J Pharmacol 137, 413-20. (2002)]. Two models of acute inflammation were used to examine whether such effects are mediated through PPARα. First, paw edema was induced in C57B16J wild-type and PPARα^−/− mice by local injection of the irritant, carrageenan [Cirino, et al., Eur J Pharmacol 166, 505-10 (1989)]. […] Next, ear edema was produced in CD1 mice by topical administration of the phorbol ester, 12-O-tetradecanoylphorbol-13-acetate (TPA) [Sheu, et al., J Invest Dermatol., 94-101. (2002)]. […] In a parallel set of experiments, the effects of PEA (20 μg) on TPA-induced edema were tested in C57B16J wild-type and PPARα^−/− mice. […] Together, these findings indicate that PEA reduces acute nociception and inflammation through activation of PPARα.
As previous described procedure [Sheu, et al., J Invest Dermatol., 94-101. (2002)], 12-O-tetradecanoylphorbol-13-acetate (TPA) was dissolved in acetone (0.03%, w v^−1) and topically delivered with a pipette to the inner and outer surfaces (10 μl/side) of mice ears. Experimental agents were dissolved in acetone and delivered topically (20 μl/side) 45 minutes and 4 hours after TPA. 18 hours after TPA administration, the mice were euthanized with CO2 and the ears punched (diameter=2 mm) four times. The 4 excised punches of skin were combined and weighed to assess edema.

mice [2] = assay: Magnesium sulfate-evoked writhing test; type: in vivo, mouse; settings: for average ED50, magnesium sulfate-evoked writhing / number of writhing episodes evoked by magnesium sulfate: subcutaneous, Swiss mice; for average ED50, magnesium sulfate-evoked writhing: n=8; for number of writhing episodes evoked by magnesium sulfate: GW7647 1-30, Wy-14643 4-80, PEA 1-20 mg-kg^−1
Description: Mice received a single dose of magnesium sulfate (120 mg/kg, dissolved in 0.5 ml saline, i.p.) and subsequent writhing episodes were monitored for a period of 30 min thereafter. Drugs were administered in saline/Tween 80/polyethylenglycol, (90/5/5) subcutaneously, 30 minutes before magnesium sulfate.
Next, the effect of PPARα agonists on the nocifensive behavior elicited by intraperitoneal injection of magnesium sulfate in mice, a model of visceral pain (Calignano, et al, Eur J Pharmacol 419, 191-8. (2001)), was explored.
Writhing test. Magnesium sulfate was injected (120 mg-kg^−1 in 0.5 ml saline, i.p.) in 12-h food-deprived mice and measured writhing episodes for 30 min (Calignano, et al, Eur J Pharmacol 419, 191-8. (2001)). Drugs or vehicle were administered by subcutaneous injection 30 min before magnesium sulfate.

mice [3] = assay: Formalin-evoked pain behavior (hind paw licking); type: in vivo, mouse; settings: for early and late phase formalin-evoked nociception, combination with anandamide: 0.1 μg/paw of each; for anti-inflammatory effect (paw weight) after formalin: 50 μg/paw, 45 minutes after intraplantar formalin, C57BL/6J mice
Description: Administration of formalin into the mouse hind paw evokes a pain behavior consisting of two temporally distinct phases of licking and flexing of the injected limb (Dubuisson, et al., Pain 4, 161-74 (1977)). The first phase, which starts immediately after formalin injection and lasts 5-10 min, is due to activation of nociceptive fibers and is accompanied by the local release of nitric oxide and adenosine [Dickenson, et al., Neurosci Lett 83, 207-11 (1987); Omote, et al., Brain Res 787, 161-4 (1998); Omote et al., 2000; Liu, et al., J Neurochem 80, 562-70 (2002)]. Following a quiescent interval of 10-15 minutes, a second phase of nociceptive behavior appears, which is associated with local inflammation [Rosland, et al., Pain 42, 235-42 (1990)] and central sensitization [Coderre, et al., J Neurosci 12, 3665-70 (1992)]. […] (2001); Farquuar-Smith, 2002]. […] The effects of PEA in C57BL/6J mice in which the PPARα gene had been deleted by homologous recombination (PPARα^−/−)[Lee, et al., Mol Cell Biol 15, 3012-22 (1995)] were examined to determine whether PPARα contributes to these properties.
Although PPARα is known to regulate the inflammatory response [Devchand, et al., Nature 384, 39-43. (1996); Cabrero, et al., Curr Drug Targets Inflamm Allergy 1, 243-8 (2002); Berger, et al., Annu Rev Med 53, 409-35 (2002); Chinetti, et al., Inflamm Res 49, 497-505 (2000)], its roles in the modulation of acute nociceptive pain remain unexplored. A series of structurally diverse PPAR-α agonists were tested for their ability to reduce pain behavior in an animal model of chemical tissue damage. Injection of formalin into the mouse hind paw evokes a nocifensive behavior consisting of two distinct phases. The first phase results from direct activation of nociceptive fibers and starts immediately after formalin administration, while the second phase develops over a period of approximately 60 min and is associated with local inflammation and central sensitization.
Mice received intraplantar injections of formalin (5% vol/vol, 10 μl) in saline containing polyethylene glycol (5%) and Tween 80 (5%). The duration of paw licking was monitored by an observer for periods of 0-15 min (early or first phase) and 15-45 min (late or second phase) immediately after formalin administration.
Formalin test. Formalin (5%, 10 μl)-induced paw licking was monitored for 0-15 min (first phase) and 15-45 min (second phase) as described (Calignano, et al., Nature 394, 277-81 (1998).

human CB2 = molecular target: T1, human CB2 (Homo sapiens, UniProt P34972); assay: CB2 receptor binding, [3H]-WIN-55212-2 displacement in CB2-overexpressing CHO cell membranes
T1 construct: purchased Perkin-Elmer, Boston, Mass; host or cells: CHO cells (membranes)

C57BL6/J mice = assay: TPA-induced edema of abdominal skin, topical administration; type: in vivo, mouse; settings: PEA 450 μg, GW7647 755 μg
[4] = topical co-application, CD1 mice

T1 sequence (P34972 whole entry): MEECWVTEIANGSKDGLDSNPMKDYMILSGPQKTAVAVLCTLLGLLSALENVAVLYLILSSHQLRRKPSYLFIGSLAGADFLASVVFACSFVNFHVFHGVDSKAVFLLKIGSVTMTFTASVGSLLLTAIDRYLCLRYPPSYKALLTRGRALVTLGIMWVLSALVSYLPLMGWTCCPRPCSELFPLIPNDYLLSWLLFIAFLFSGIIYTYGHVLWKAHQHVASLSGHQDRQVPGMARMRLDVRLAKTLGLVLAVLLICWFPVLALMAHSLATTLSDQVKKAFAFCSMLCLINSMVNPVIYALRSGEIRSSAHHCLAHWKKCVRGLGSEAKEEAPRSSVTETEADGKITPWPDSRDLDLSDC

Row | Structure (SMILES) | anti-inflammatory activity on TPA-induced edema in PPARα−/− mice (mice [1]; PPARα−/− mice) | TPA-induced ear edema formation (mice [1]; [4]) | average ED50, magnesium sulfate-evoked writhing (mice [2]) [mg/kg] | number of writhing episodes evoked by magnesium sulfate (mice [2]) | early and late phase formalin-evoked nociception, combination with anandamide (mice [3]; Swiss mice) | anti-inflammatory effect (paw weight) after formalin (mice [3]) | formalin pain in PPARα−/− mice (mice [3]; 50 μg i.pl.) | first- and second-phase nociception (mice [3]; Swiss mice, i.pl. together with formalin, GW7647 0.1-50 μg, Wy-14643 50-200 μg, fenofibric acid 100-400 μg) | average half-maximal effective dose (ED50) to reduce first-phase pain (mice [3]; intraplantar with formalin, Swiss mice, ten experiments) [µg] | [^3H]-WIN-55212-2 Binding (% of control) (human CB2; Concentration 1 μM) | [^3H]-WIN-55212-2 Binding (% of control) (human CB2; Concentration 10 μM) | TPA-induced edema of abdominal skin (C57BL6/J mice) | TPA-induced edema in wild-type and PPARα−/− mice (mice [1]; PEA 20 μg, C57Bl6J wild-type and PPARα−/− mice) | ED50, TPA-induced ear edema (mice [1]; topical co-application, CD1 mice, n=5) [μg per ear] | magnesium sulfate induced writhing in PPARα−/− mice (mice [2]; PPARα−/− mice, 20 mg-kg^−1 s.c.) | ED50 of antinociceptive effect in the formalin model (mice [3]; i.pl.) [µg] | phase I and II formalin pain in wild-type mice (mice [3]; wild-type C57BL6 mice, 50 μg i.pl.)
1 | CC(C)(Sc1ccc(CCN(CCCCC2CCCCC2)C(=O)NC2CCCCC2)cc1)C(=O)O [GW7647] | residual, albeit weak anti-inflammatory activity | attenuated | 7.5 | dose-dependently decreased the number of writhing episodes | Mimicry of this synergism | absence of anti-inflammatory effects | failed to respond | attenuated first- and second-phase nociception in a dose-dependent manner | 9.9 | 102.1 ± 4.0 % of control | 91.6 ± 4.1 % of control | attenuated TPA-induced edema |  |  |  |  | 
2 | CCCCCCCCCCCCCCCC(=O)NCCO [PEA, palmitoylethanolamide] |  | attenuated | 9.9 | dose-dependently decreased the number of writhing episodes | synergistically inhibit | absence of anti-inflammatory effects | absent |  |  | 106.2 ± 2.5 % of control | 98.5 ± 4.2 % of control | attenuated TPA-induced edema | effective only in wild-type animals | 8.9 | did not significantly modify | 7.4 | attenuated these responses only in wild-type animals
